Measurements from BigSolDB 2.1.

O=C1CCC(=O)CC1
solubility (mole fraction)
Conditions | in acetone | in acetonitrile | in cyclohexane | in ethanol | in ethyl acetate | in isopropanol | in methanol | in methyl acetate | in n-butanol | in n-propanol
278.15 K | 0.177 | 0.241 | – | 0.0215 | 0.093 | 0.018 | 0.112 | 0.156 | 0.0113 | 0.0096
283.15 K | 0.21 | 0.273 | 0.000676 | 0.0301 | 0.117 | 0.0274 | 0.141 | 0.188 | 0.0181 | 0.0162
288.15 K | 0.248 | 0.311 | 0.000868 | 0.0479 | 0.146 | 0.0414 | 0.174 | 0.227 | 0.0293 | 0.0253
293.15 K | 0.29 | 0.35 | 0.00111 | 0.0777 | 0.179 | 0.0681 | 0.221 | 0.27 | 0.0436 | 0.0409
298.15 K | 0.338 | 0.391 | 0.00141 | 0.121 | 0.223 | 0.107 | 0.266 | 0.321 | 0.0654 | 0.0638
303.15 K | 0.391 | 0.434 | 0.00182 | 0.183 | 0.271 | 0.165 | 0.324 | 0.377 | 0.0954 | 0.0996
308.15 K | 0.454 | 0.481 | 0.00234 | 0.265 | 0.332 | 0.254 | 0.393 | 0.441 | 0.145 | 0.157
313.15 K | 0.52 | 0.533 | 0.00293 | 0.375 | 0.404 | 0.36 | 0.461 | 0.515 | 0.222 | 0.24
